Test results from patent publication US5656736A, “Compound UCH9” (Kyowa Hakko Kogyo Co., Ltd., priority 1993, dated 1997).
Converted amounts (≈) assume the structure as drawn. Structures can show the parent of a compound that is named as a salt.

Tests used:
[1] = tested on: HeLa S3 cells (ATCC HTB22); assay: Growth inhibition against HeLa S3 cells (Neutral Red staining); assay type: cell-based; details: Homo sapiens, 72 hours, 37° C.
Protocol: HeLa S3 cells (ATCC HTB22) were suspended in a medium comprising 10% fetal calf serum, 2 mM glutamine and MEM medium (Nippon Pharmaceutical Co., Ltd.) (hereinafter referred to as medium A) to a concentration of 3×10^4 cells/mi. The cell suspension was put into wells of a 96-well microtiter plate in an amount of 0.1 ml per well. The cells in the plate were cultured at 37° C. for 20 hours in a CO2 -incubator. Subsequently, the test compound obtained in Example 1 which was appropriately diluted with medium A was added to the wells in an amount of 0.1 ml/well. The cells were further cultured at 37° C. for 72 hours in the CO2 -incubator, and then the culture supernatant was removed. To the residue was added a medium comprising medium A and 0.02% Neutral Red in an amount of 0.1 ml per well, followed by culturing at 37° C. for one hour in the CO2 -incubator, whereby the cells were stained. After removal of the culture supernatant, the residue was washed once with physiological saline. The pigment was extracted with 0.001N hydrochloric acid/30% ethanol, and the absorbance at 550 nm was measured by using a microplate reader. The concentration of the test compound at which the growth of the cells is inhibited by 50% (IC50) was calculated by comparing the absorbance of untreated cells with those of the cells treated with the test compound at known concentrations.

[2] = tested on: Staphylococcus aureus ATCC 6538P; assay: Antibacterial activity, agar dilution method (MIC); assay type: cell-based; details: ATCC6538P, pH 7
Protocol: (§1) The minimum inhibitory concentration (MIC) of the compound obtained in Example 1 against the growth of various bacteria is shown in Table 1.
(§2) The antibacterial activity was determined by the agar dilution method using a medium (pH 7) which comprises 3 g/l Bacto-tryptone (Difco Laboratories),3 g/l meat extract, 1 g/l yeast extract, 1 g/l glucose and 16 g/l agar.

[3] = tested on: Bacillus subtilis No. 10707; assay: Antibacterial activity, agar dilution method (MIC); assay type: cell-based; details: pH 7
Protocol: as §1, §2

[4] = tested on: Enterococcus faecium ATCC 10541; assay: Antibacterial activity, agar dilution method (MIC); assay type: cell-based; details: ATCC10541, pH 7
Protocol: as §1, §2

Solubility = assay type: physicochemical

Row | Compound | IC50 [1] [µg/mL] | MIC [2] [µg/mL] | MIC [3] [µg/mL] | MIC [4] [µg/mL] | Solubility (Solubility; chloroform) | Solubility (Solubility; dimethylsulfoxide (DMSO)) | Solubility (Solubility; methanol) | Solubility (Solubility; water)
1 | CCC(C)c1c(OC2CC(O)C(O)C(C)O2)cc2cc3c(c(O)c2c1O)C(=O)C(OC1CC(OC2CC(OC4CC(OC5CC(OC)C(O)C(C)O5)C(O)C(C)O4)C(O)C(C)O2)C(O)C(C)O1)C(C(OC)C(=O)C(O)C(C)O)C3 (centres unmarked) [UCH9] | 0.015 (≈ 0.0133 µM) | 5.2 (≈ 4.61 µM) | 0.04 (≈ 0.0355 µM) | 41.6 (≈ 36.9 µM) |  |  |  | 
2 | CCC(C)c1c(OC2CC(O)C(O)C(C)O2)cc2cc3c(c(O)c2c1O)C(=O)C(OC1CC(OC2CC(OC4CC(OC5CC(OC)C(O)C(C)O5)C(O)C(C)O4)C(O)C(C)O2)C(O)C(C)O1)C(C(OC)C(=O)C(O)C(C)O)C3 (centres unmarked) [UCH9·1/2 magnesium salt] |  |  |  |  | sparingly soluble | Soluble | Soluble | sparingly soluble
